# Several values for one entry are separate records, joined by “and”; a condition that tells them apart may be missing. Identical values can stand only once. Like-named read-outs stand apart in the source and are kept apart here.
# System: eggs
# [1] = 4 day delta: Day 4 DHP+ versus Day 4 DHP−
# [2] = 5 day delta: Day 5 DHP+ versus Day 5 DHP−
# [3] = 6 day delta: Day 6 DHP+ versus Day 6 DHP−
# [4] = Day 4 DHP+, summary over replicates stored 4 days
# [5] = Day 5 DHP+, summary over replicates stored 5 days
# [6] = Day 6 DHP+, summary over replicates stored 6 days
# [7] = Day 7 DHP+, summary over replicates stored 7 days
# [8] = Day 7 Delta: Day 7 DHP+ versus Day 7 DHP−
# [9] = Delta: Avg. Trtd versus Avg. Untrd, all storage times
# [10] = an additional day (five days) of DHP gas treatment, vs untreated
# [11] = eggs treated four days, vs untreated
# [12] = seven day storage, vs untreated
# [13] = with DHP gas, Mean / Avg. Trtd of 22 replicates, storage 4 to 7 days
# [14] = with DHP gas, egg storage 4 days, single replicates of 90 eggs
# [15] = with DHP gas, egg storage 5 days, single replicates of 90 eggs
# [16] = with DHP gas, egg storage 6 days, single replicates of 90 eggs
# [17] = with DHP gas, egg storage 7 days, single replicates of 90 eggs
# 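Also: paired egg replicates incubated to hatching under standard commercial conditions, then each category scored at hatch as percent of eggs in the replicate.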
# Procedure: A total of 22 replicates of 90 eggs each of age matched, flock matched eggs are stored prior to incubation for 4 to 7 days in an on-site egg room at about 20° C. […] The paired replicates are then incubated to hatching under standard commercial conditions. At hatching, the following parameters are assessed and recorded: Total Hatchability (%), Fertile Hatchability (%), % Infertile, Early dead (%), Mid dead (%), Late dead (%), Cracked (%), Contaminated (%), Live pip (%), Dead pip (%), Cull dead chick (%), Chick Weight (g), Chick A (%), and Chick B (%).
smiles,measurement,setting,value
"OO [DHP, dry hydrogen peroxide]","% Infertile, delta",[1],0.64%
same,"Chick A, delta",[1],0.14%
same,"Chick B, delta",[1],−0.14%
same,"Chick Weight, delta",[1],0.89 g
same,"Cont, delta",[1],0.00%
same,"Crack, delta",[1],0.32%
same,"Cull dead cks, delta",[1],0.00%
same,"Dead pip, delta",[1],−0.16%
same,"Early dead, delta",[1],−0.33%
same,"Fertile Hatchability, delta",[1],0.12%
same,"Late dead, delta",[1],−0.64%
same,"Live pip, delta",[1],0.63%
same,"Mid dead, delta",[1],0.16%
same,"Total Hatchability, delta",[1],−0.64%
same,"% Infertile, delta",[2],1.84%
same,"Chick A, delta",[2],1.73%
same,"Chick B, delta",[2],−1.73%
same,"Chick Weight, delta",[2],0.85 g
same,"Cont, delta",[2],0.00%
same,"Crack, delta",[2],−0.19%
same,"Cull dead cks, delta",[2],0.00%
same,"Dead pip, delta",[2],−0.37%
same,"Early dead, delta",[2],−1.70%
same,"Fertile Hatchability, delta",[2],3.20%
same,"Late dead, delta",[2],−2.05%
same,"Live pip, delta",[2],0.37%
same,"Mid dead, delta",[2],0.74%
same,"Total Hatchability, delta",[2],1.36%
same,"% Infertile, delta",[3],0.94%
same,"Chick A, delta",[3],−0.57%
same,"Chick B, delta",[3],0.57%
same,"Chick Weight, delta",[3],0.49 g
same,"Cont, delta",[3],0.00%
same,"Crack, delta",[3],0.00%
same,"Cull dead cks, delta",[3],−0.48%
same,"Dead pip, delta",[3],−0.48%
same,"Early dead, delta",[3],−2.77%
same,"Fertile Hatchability, delta",[3],4.67%
same,"Late dead, delta",[3],−0.82%
same,"Live pip, delta",[3],−0.16%
same,"Mid dead, delta",[3],0.48%
same,"Total Hatchability, delta",[3],2.96%
same,% Infertile,[4],2.39%
same,Chick A,[4],96.98%
same,Chick B,[4],3.02%
same,Chick Weight,[4],44.69 g
same,Cont,[4],0.00%
same,Crack,[4],0.48%
same,Cull dead cks,[4],0.00%
same,Dead pip,[4],0.16%
same,Early dead,[4],4.12%
same,Fertile Hatchability,[4],92.21%
same,Late dead,[4],1.74%
same,Live pip,[4],0.95%
same,Mid dead,[4],0.16%
same,Total Hatchability,[4],89.99%
same,% Infertile,[5],4.44%
same,Chick A,[5],98.37%
same,Chick B,[5],1.64%
same,Chick Weight,[5],44.29 g
same,Cont,[5],0.00%
same,Crack,[5],0.00%
same,Cull dead cks,[5],0.00%
same,Dead pip,[5],0.00%
same,Early dead,[5],1.85%
same,Fertile Hatchability,[5],95.33%
same,Late dead,[5],1.11%
same,Live pip,[5],0.56%
same,Mid dead,[5],0.93%
same,Total Hatchability,[5],91.11%
same,% Infertile,[6],2.22%
same,Chick A,[6],96.88%
same,Chick B,[6],3.12%
same,Chick Weight,[6],44.30 g
same,Cont,[6],0.00%
same,Crack,[6],0.00%
same,Cull dead cks,[6],0.00%
same,Dead pip,[6],0.00%
same,Early dead,[6],2.70%
same,Fertile Hatchability,[6],94.14%
same,Late dead,[6],2.06%
same,Live pip,[6],0.16%
same,Mid dead,[6],0.79%
same,Total Hatchability,[6],92.06%
same,% Infertile,[7],0.56%
same,Chick A,[7],97.06%
same,Chick B,[7],2.94%
same,Chick Weight,[7],44.68 g
same,Cont,[7],0.00%
same,Crack,[7],0.00%
same,Cull dead cks,[7],0.56%
same,Dead pip,[7],0.00%
same,Early dead,[7],1.11%
same,Fertile Hatchability,[7],94.98%
same,Late dead,[7],1.67%
same,Live pip,[7],1.11%
same,Mid dead,[7],0.56%
same,Total Hatchability,[7],94.44%
same,"% Infertile, delta",[8],0.00%
same,"Chick A, delta",[8],−1.17%
same,"Chick B, delta",[8],1.17%
same,"Chick Weight, delta",[8],1.10 g
same,"Cont, delta",[8],−0.56%
same,"Crack, delta",[8],0.00%
same,"Cull dead cks, delta",[8],0.56%
same,"Dead pip, delta",[8],0.00%
same,"Early dead, delta",[8],−2.78%
same,"Fertile Hatchability, delta",[8],0.56%
same,"Late dead, delta",[8],0.55%
same,"Live pip, delta",[8],1.11%
same,"Mid dead, delta",[8],0.56%
same,"Total Hatchability, delta",[8],0.56%
same,"% Infertile, delta",[9],1.00%
same,"Chick A, delta",[9],0.23%
same,"Chick B, delta",[9],−0.23%
same,"Chick Weight, delta",[9],0.77 g
same,"Cont, delta",[9],−0.05%
same,"Crack, delta",[9],0.05%
same,"Cull dead cks, delta",[9],−0.10%
same,"Dead pip, delta",[9],−0.30%
same,"Early dead, delta",[9],−1.70%
same,"Fertile Hatchability, delta",[9],2.45%
same,"Late dead, delta",[9],−0.97%
same,"Live pip, delta",[9],0.35%
same,"Mid dead, delta",[9],0.45%
same,"Total Hatchability, delta",[9],1.16%
same,increase in fertile hatchability,[10],3.2%
same,increase in total hatchability,[10],1.3%
same,increased weight,[10],0.85 grams
same,DHP gas treated eggs observed to be contaminated,at day 7,none
same,decrease in number of early deaths,"death during incubation, vs untreated",about 1.7%
same,change in fertile hatchability,[11],0.12%
same,change in total hatchability,[11],−0.64%
same,increased weight,[11],0.89 g
same,increase of fertile hatchability,[12],0.56%
same,increase of total hatchability,[12],0.56%
same,increased weight,[12],1.10 grams
same,increase of fertile hatchability,"six days, vs untreated",4.67%
same,increase of total hatchability,"six days, vs untreated",2.96%
same,increased weight,"six days, vs untreated",0.49 grams
same,mid cycle deaths,vs untreated,decreased
same,number of live pip eggs,vs untreated,increases
same,improvement in number of A grade chicks,vs untreated eggs,0.23%
same,increase of average chick weight,"vs untreated eggs, on-site storage 4 to 7 days at about 20° C.",0.77 grams
same,increase of average chick weight,"vs untreated eggs, on-site storage 4 to 7 days, listed as DHP gas",1.7% and 1.8%
same,% Infertile,[13],2.73%
same,Chick A,[13],97.34%
same,Chick B,[13],2.66%
same,Chick Weight,[13],44.46 g
same,Cont,[13],0.00%
same,Crack,[13],0.15%
same,Cull dead cks,[13],0.05%
same,Dead pip,[13],0.05%
same,Early dead,[13],2.78%
same,Fertile Hatchability,[13],93.93%
same,Late dead,[13],1.67%
same,Live pip,[13],0.61%
same,Mid dead,[13],0.61%
same,Total Hatchability,[13],91.36%
same,Cont,[14],0.00%
same,Crack,[14],0.00% (5×) and 1.11% and 2.22%
same,Cull dead,[14],0.00%
same,Dead pip,[14],0.00% (6×) and 1.11%
same,Live pip,[14],1.11% (2×) and 0.00% (4×) and 4.44%
same,Mid dead,[14],0.00% (6×) and 1.11%
same,Cont,[15],0.00%
same,Crack,[15],0.00%
same,Cull dead,[15],0.00%
same,Dead pip,[15],0.00%
same,Early dead,[15],2.22% (2×) and 1.11% (3×) and 3.33%
same,Late dead,[15],0.00% (3×) and 2.22% (3×)
same,Live pip,[15],0.00% (4×) and 1.11% and 2.22%
same,Mid dead,[15],0.00% (2×) and 1.11% (3×) and 2.22%
same,Cont,[16],0.00%
same,Crack,[16],0.00%
same,Cull dead,[16],0.00%
same,Dead pip,[16],0.00%
same,Early dead,[16],2.22% (5×) and 3.33% and 4.44%
same,Live pip,[16],0.00% (6×) and 1.11%
same,Mid dead,[16],1.11% (3×) and 0.00% (3×) and 2.22%
same,% Infer,[17],1.11% and 0.00%
same,Chick A,[17],96.47% and 97.65%
same,Chick B,[17],3.53% and 2.35%
same,Chick Weight,[17],44.94 g and 44.41 g
same,Cont,[17],0.00%
same,Crack,[17],0.00%
same,Cull dead,[17],1.11% and 0.00%
same,Dead pip,[17],0.00%
same,Early dead,[17],1.11%
same,Fertile Hatchblty,[17],95.51% and 94.44%
same,Late dead,[17],2.22% and 1.11%
same,Live pip,[17],0.00% and 2.22%
same,Mid dead,[17],0.00% and 1.11%
same,Total Hatchblty,[17],94.44%

# Reference: patent US10285382B2 (priority 2017, dated 2019)
